Experimental data published in publication PMC7529893, “Structural basis for substrate recognition and chemical inhibition of oncogenic MAGE ubiquitin ligases” (Nature Communications, 2020).
≈ marks a conversion by molar mass, not a printed value. Entries after “also recorded” stand apart in the source; their conditions may differ.

What was measured:
His-SUMO-MAGE-A11 MHD = target: T1, His-SUMO-MAGE-A11 MHD (Homo sapiens, UniProt P43364); test: Nano-differential scanning fluorimetry (NanoDSF); type: binding; settings: six-point dose response, protein 10 µM
T1 construct: made in house; host or cells: bacteria
T1 sequence (P43364 218-429): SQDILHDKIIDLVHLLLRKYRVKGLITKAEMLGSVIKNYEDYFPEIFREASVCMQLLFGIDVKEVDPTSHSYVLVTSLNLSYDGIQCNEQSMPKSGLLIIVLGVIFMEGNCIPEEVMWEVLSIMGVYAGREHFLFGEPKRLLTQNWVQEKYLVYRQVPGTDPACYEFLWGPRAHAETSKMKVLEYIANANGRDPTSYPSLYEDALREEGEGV
Protocol: For NanoDSF measurements, a Prometheus NT.48 instrument (NanoTemper Technologies) was used to determine the melting temperatures. Triplicate samples were prepared in a standard 384-well PCR plate with His-SUMO-MAGE-A11 at 10 µM and ligand concentrations as noted. After incubating the protein and ligands for at least 30 min, capillaries were filled with 10 μL of sample and placed on the sample holder. DMSO was used as a negative reference control while PCF11_6 peptide was used as a positive control validating the assay. A temperature gradient of 1 °C min^−1 from 25 to 95 °C was applied and the intrinsic protein fluorescence at 330 and 350 nm was recorded. The 350 nm to 330 nm ratios of fluorescence measurements were used to calculate the Tm values of each sample using the Nanotemper PR.ThermControl software. Data were further analyzed and plotted using GraphPad Prism (v 8.3.1).

MAGE-A3:AMPKα1 = target: T2, MAGE-A3:AMPKα1 (Homo sapiens, UniProt P43357); test: Co-IP of MAGE-A3 with AMPKα1 in cell lysate; type: binding; settings: 100 µM, 24 h
T2 construct: expressed in transfected cells
T2 sequence (P43357 whole entry): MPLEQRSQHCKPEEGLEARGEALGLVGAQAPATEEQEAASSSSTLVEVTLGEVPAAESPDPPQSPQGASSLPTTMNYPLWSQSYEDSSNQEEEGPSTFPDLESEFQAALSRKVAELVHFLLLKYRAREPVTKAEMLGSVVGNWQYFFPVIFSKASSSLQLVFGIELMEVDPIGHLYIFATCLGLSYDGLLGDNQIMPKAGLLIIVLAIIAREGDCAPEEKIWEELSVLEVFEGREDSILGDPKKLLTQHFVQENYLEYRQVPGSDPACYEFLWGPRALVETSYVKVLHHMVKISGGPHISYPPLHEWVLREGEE
Protocol: (§1) HEK293FT cells were plated in 6 cm^2 plates and transfected 24 h later with Effectene (QIAGEN) according to the manufacturer’s protocol. After 48 h, cells were washed and scraped in cold PBS, spun down, and resuspended in lysis buffer (50 mM Tris pH 7.4, 150 mM NaCl, 1 mM DTT, 0.1% (v/v) Triton X-100, 10 mM N-Ethylmaleimide, and 1X protease inhibitor cocktail (Sigma)). Cell lysates were incubated with appropriate antibodies overnight at 4 °C and then with protein A beads for 2 h at 4 °C. Beads were then washed with lysis buffer three times and eluted with 2X SDS sample buffer.
(§2) For western blotting, samples in SDS sample buffer were resolved on SDS-PAGE gels and then transferred to nitrocellulose membranes prior to blocking in TBST with 5% (w/v) milk powder or 3% (w/v) bovine serum albumin and probing with primary and secondary antibodies (GE Healthcare). Primary antibodies were: anti-Myc (Sigma, #C3956), anti-FLAG (Sigma, #F3165), anti-HUWE1 (Novus Biologicals, #NB 100-652), anti-PCF11 (Bethyl Laboratories, #A303-706A), anti-GAPDH (Cell Signaling Technology, #2118), anti-TRIM28 (Abcam, #ab22553), anti-AMPKα1 (Cell Signaling Technology, #2795), and anti-MMS19 (Proteintech, #16015-1-AP) and Tb-anti-GST (Invitrogen, #PV3551). Secondary antibodies were: Donkey Anti-Rabbit IgG (GE Healthcare, NA934V) and Sheep Anti-Mouse IgG (GE Healthcare, NA931V). […]

MAGE-F1:MMS19 = target: T3, MAGE-F1:MMS19 (Homo sapiens, UniProt Q9HAY2); test: Co-IP of MAGE-F1 with MMS19 in cell lysate; type: binding; settings: 100 µM, 24 h
T3 construct: expressed in transfected cells
T3 sequence (Q9HAY2 1-307): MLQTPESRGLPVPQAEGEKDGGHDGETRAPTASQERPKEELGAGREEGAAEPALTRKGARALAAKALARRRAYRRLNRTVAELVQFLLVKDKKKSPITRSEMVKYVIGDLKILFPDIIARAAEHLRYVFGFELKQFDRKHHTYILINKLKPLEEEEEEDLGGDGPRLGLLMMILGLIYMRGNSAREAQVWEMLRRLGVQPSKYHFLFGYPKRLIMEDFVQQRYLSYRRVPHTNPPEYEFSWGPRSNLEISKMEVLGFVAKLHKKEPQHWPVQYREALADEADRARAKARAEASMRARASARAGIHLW
Protocol: as §1, §2

[1] = Solubility assay (μSOL Evolution); type: physicochemical; settings: citrate phosphate-buffered saline (isotonic) with 1% DMSO; 18 h at RT
Protocol: Solubility assays were carried out on a Biomek FX lab automation workstation (Beckman Coulter, Inc., Fullerton, CA) using μSOL Evolution software (pION Inc., Woburn, MA). The detailed method is described as follows. 10 µl of 10 mM compound stock (in DMSO) was added to 190 μl 1-propanol to make a reference stock plate. In total, 5 µl from this reference stock plate were mixed with 70 µl 1-propanol and 75 µl citrate phosphate-buffered saline (PBS; isotonic) to make the reference plate, and the UV spectrum (250–500 nm) of the reference plate was read. In total, 6 µl of 10 mM test compound stock was added to 594 µl buffer in a 96-well storage plate and mixed. The storage plate was sealed and incubated at RT for 18 h. The suspension was then filtered through a 96-well filter plate (pION Inc., Woburn, MA). In all, 75 µl of filtrate was mixed with 75 µl 1-propanol to make the sample plate, and the UV spectrum of the sample plate was read. Calculations were carried out with μSOL Evolution software based on the area under the curve (AUC) of the UV spectrum of the sample and reference plates. All compounds were tested in triplicate.

Compound | thermal stabilization of MAGE-A11 (NanoDSF) (His-SUMO-MAGE-A11 MHD; listed as SJ521054) | interaction of MAGE-A3 with AMPKα1 in cell lysate (MAGE-A3:AMPKα1; listed as SJ521054) | interaction of MAGE-F1 with MMS19 in cell lysate (MAGE-F1:MMS19; listed as SJ521054) | solubility at 18 h [1] [µM] | thermal stabilization of MAGE-A11 (NanoDSF) (His-SUMO-MAGE-A11 MHD; listed as SJ1008066) | interaction of MAGE-A3 with AMPKα1 in cell lysate (MAGE-A3:AMPKα1; listed as SJ1008066) | interaction of MAGE-F1 with MMS19 in cell lysate (MAGE-F1:MMS19; listed as SJ1008066)
FC(F)(F)c1ccc2c(NCCCNCc3ccc4[nH]ccc4c3)ccnc2c1 [SJ000521054-02] | showed stabilization of MAGE-A11; also recorded: stabilized MAGE-A11 | do not disrupt interaction; also recorded: did not disrupt interaction | do not disrupt interaction; also recorded: did not disrupt interaction | 26.5 (≈ 10.6 µg/mL) | – | – | –
c1ccc2c(NCCCNCc3ccc4[nH]ccc4c3)ccnc2c1 [SJ001008066-01] | – | – | – | 37.8 (≈ 12.5 µg/mL) | showed stabilization of MAGE-A11; also recorded: stabilized MAGE-A11 | do not disrupt interaction; also recorded: did not disrupt interaction | do not disrupt interaction; also recorded: did not disrupt interaction
